Results: patent US9957265B2, “N-(2-cyano heterocyclyl) pyrazolo pyridones as janus kinase inhibitors” (Merck Sharp & Dohme Corp., priority 2013, dated 2018)
Read-outs that look alike come from different tables or passages of the source.

What was measured:
[1] = molecular target: JAK2 (Homo sapiens (Human), UniProt O60674); assay: Jak Biochemical HTRF Assay (JAK2)
Experimental: The ability of compounds to inhibit the activity of JAK1, JAK2, JAK3, and TYK2 was measured using a recombinant purified GST-tagged catalytic domain for each enzyme (Invitrogen JAK1 #M4290, JAK2 #M4290, JAK3 #M4290, TYK2 #M4290) in an HTRF format biochemical assay. […] Subsequent reagent additions employed an Agilent Bravo. […] After equilibration, 2 μL of 10×ATP in 1× assay buffer was added to initiate the kinase reaction and the plates were shaken and then incubated at room temperature for 120 minutes. […] After normalization to untreated controls, the percent inhibition of the HTRF signal at each compound concentration was calculated. The plot of percent inhibition versus the log of compound concentration was fit with a 4-parameter dose response equation to calculate IC50 values.
Final reaction conditions were:

[2] = molecular target: JAK1 (Homo sapiens (Human), UniProt P23458); assay: Jak Biochemical HTRF Assay (JAK1); conditions: recombinant GST-tagged catalytic domain, [ATP] 31.8 μM, unit not given (compound concentrations tested given in nM)
JAK1, sequence (P23458 875-1153): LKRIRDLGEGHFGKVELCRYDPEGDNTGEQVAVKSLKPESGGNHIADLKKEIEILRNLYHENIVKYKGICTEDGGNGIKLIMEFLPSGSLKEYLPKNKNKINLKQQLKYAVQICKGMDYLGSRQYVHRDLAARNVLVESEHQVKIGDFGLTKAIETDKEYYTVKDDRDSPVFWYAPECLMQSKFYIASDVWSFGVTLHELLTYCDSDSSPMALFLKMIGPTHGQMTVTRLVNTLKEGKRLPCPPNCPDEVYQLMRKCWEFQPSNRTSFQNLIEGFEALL
From the text: Jak Biochemical HTRF Assay Protocol
Subsequent reagent additions employed an Agilent Bravo.

[3] = JAK2 IC50, recombinant GST-tagged catalytic domain, [ATP] 8.5 μM, unit not given (compound concentrations tested given in nM)
[4] = read-out: JAK2 IC50, recombinant GST-tagged catalytic domain, [ATP] 8.5 μM, unit not given (compound concentrations tested given in nM)

JAK2, sequence (O60674 849-1124): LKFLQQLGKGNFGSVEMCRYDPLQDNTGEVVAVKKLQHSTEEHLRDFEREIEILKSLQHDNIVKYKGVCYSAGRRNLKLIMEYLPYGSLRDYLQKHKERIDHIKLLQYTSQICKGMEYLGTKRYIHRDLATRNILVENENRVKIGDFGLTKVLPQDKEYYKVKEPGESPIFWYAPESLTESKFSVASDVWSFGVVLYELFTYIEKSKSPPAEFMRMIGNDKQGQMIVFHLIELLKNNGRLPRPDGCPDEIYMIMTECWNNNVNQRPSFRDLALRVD

Row | Compound | IC50 [1, 3] | IC50 [2] | IC50 [1, 4]
1 | CN(C)C(c1ccc(Nc2nn([C@H]3COCC[C@@H]3C#N)c3cc[nH]c(=O)c23)cc1)C(F)(F)F (single isomer, unassigned) [Example 1-18, (3R,4S)-3-[3-({4-[(1R, or 1S)-1-(dimethylamino)-2,2,2-trifluoroethyl]phenyl}amino)-4-oxo-4,5-dihydro-1H-pyrazolo[4,3-c]pyridin-1-yl]tetrahydro-2H-pyran-4-carbonitrile] | 0.13 nM | 0.07 nM | 
2 | CC(C)NC(c1ccc(Nc2nn([C@H]3COCC[C@@H]3C#N)c3cc[nH]c(=O)c23)cc1)C(F)(F)F (single isomer, unassigned) [Example 1-53, (3R,4S)-3-{4-oxo-3-[(4-{[1S or 1R)-2,2,2-trifluoro-[(1-methylethyl)amino]ethyl}phenyl)amino]-4,5-dihydro-1H-pyrazolo[4,3-c]pyridin-1-yl}tetrahydro-2H-pyran-4-carbonitrile] | 0.09 nM | 0.08 nM | 
3 | CN1Cc2cc(Nc3nn([C@H]4COCC[C@@H]4C#N)c4cc[nH]c(=O)c34)ccc2S1(=O)=O [Example 1-4, (3R,4S)-3-(3-((2-methyl-1,1-dioxido-2,3-dihydrobenzo[d]isothiazol-5-yl)amino)-4-oxo-4,5-dihydro-1H-pyrazolo[4,3-c]pyridin-1-yl)tetrahydro-2H-pyran-4-carbonitrile] |  | 0.04 nM | 0.34 nM
4 | N#C[C@H]1CCOC[C@@H]1n1nc(Nc2ccc(C(N3CCCC3)C(F)(F)F)cc2)c2c(=O)[nH]ccc21 (single isomer, unassigned) [Example 1-43, (3R,4S)-3-[4-oxo-3-({4-[(1S or 1R)-2,2,2-trifluoro-1-pyrrolidin-1-ylethyl]phenyl}amino)-4,5-dihydro-1H-pyrazolo[4,3-c]pyridin-1-yl]tetrahydro-2H-pyran-4-carbonitrile] | 0.08 nM | 0.04 nM | 

Results, then the molecule that gave them:

Row | IC50 [1, 3] | IC50 [2] | IC50 [1, 4] | Compound
5 | 7.44 nM | 1.64 nM |  | C[S+]([O-])c1cc(Nc2nn([C@H]3COCC[C@@H]3C#N)c3cc[nH]c(=O)c23)ccc1F (single isomer, unassigned) [Example 3-3, (3R,4S)-3-(3-((4-fluoro-3-((S or R)-methylsulfinyl)phenyl)amino)-4-oxo-4,5-dihydro-1H-pyrazolo[4,3-c]pyridin-1-yl)tetrahydro-2H-pyran-4-carbonitrile]
6 |  | 0.04 nM | 0.08 nM | CCN(C(C)(C)C)S(=O)(=O)c1ccc(Nc2nn([C@H]3COCC[C@@H]3C#N)c3cc[nH]c(=O)c23)cc1 [Example 1-79, N-(tert-butyl)-4-((1-((3R,4S)-4-cyanotetrahydro-2H-pyran-3-yl)-4-oxo-4,5-dihydro-1H-pyrazolo[4,3-c]pyridin-3-yl)amino)-N-ethylbenzenesulfonamide]
7 | 0.08 nM | 0.05 nM |  | CN(C)C(c1ccc(Nc2nn([C@H]3COCC[C@@H]3C#N)c3cc[nH]c(=O)c23)cc1)C(F)(F)F (single isomer, unassigned) [Example 1-59, (3R,4S)-3-[3-({4-[(1S or 1R)-1-(dimethylamino)-2,2,2-trifluoroethyl]phenyl}amino)-4-oxo-4,5-dihydro-1H-pyrazolo[4,3-c]pyridin-1-yl]tetrahydro-2H-pyran-4-carbonitrile]
8 |  | 0.35 nM | 0.7 nM | C[C@@H]1CN(S(=O)(=O)c2ccc(Nc3nn([C@H]4COCC[C@@H]4C#N)c4cc[nH]c(=O)c34)cc2)C[C@H](C)O1 [Example 1-73, (3R,4S)-3-{3-[(4-{[(cis)-2,6-dimethylmorpholin-4-yl]sulfonyl}phenyl)amino]-4-oxo-4,5-dihydro-1H-pyrazolo[4,3-c]pyridin-1-yl}tetrahydro-2H-pyran-4-carbonitrile]
9 | 1.06 nM | 0.5 nM |  | CC(C)(C)CNC(c1ccc(Nc2nn([C@H]3COCC[C@@H]3C#N)c3cc[nH]c(=O)c23)cc1)C(F)(F)F (single isomer, unassigned) [Example 1-83, (3R,4S)-3-{3-[(4-{(1R or 1S)-1-[(2,2-dimethylpropyl)amino]-2,2,2-trifluoroethyl}phenyl)amino]-4-oxo-4,5-dihydro-1H-pyrazolo[4,3-c]pyridin-1-yl} tetrahydro-2H-pyran-4-carbonitrile]
